Results on 16 molecules are retold here after BindingDB's records for doi:10.1016/j.ejmech.2020.113045 (Rheinische Friedrich-Wilhelms-University of Bonn, 2021).

A short description of one data set: Inhibition of ABCB1 (unknown origin) expressed in human A2780 ADR cells assessed as potentiation of daunorubicin-induced cytotoxicity measured after 72 hrs by MTT assay. (In general: Tetrazolium dyes change colour on reduction, which living cells bring about.)
For the molecule `N#Cc1ccc(Nc2cc(Nc3ccccc3O)nc(-c3ccccc3)n2)cc1`, the EC50 stood at 34400 nM.

A further data set can be described thus: Inhibition of ABCG2 (unknown origin) expressed in MDCK-II cells assessed as potentiation of SN-38-induced cytotoxicity measured after 72 hrs by MTT assay.
`CNc1cc(Nc2ccc(C#N)cc2)nc(-c2ccccc2)n1`: the EC50 was 22 nM. Take `CC(C)Nc1cc(Nc2ccc(C#N)cc2)nc(-c2ccccc2)n1`: the EC50 was 18 nM. Regarding `CCCNc1cc(Nc2ccc(C#N)cc2)nc(-c2ccccc2)n1`, the EC50 was found to be 15 nM. `CCCCNc1cc(Nc2ccc(C#N)cc2)nc(-c2ccccc2)n1`: the EC50 was determined as 30 nM.

For `N#Cc1ccc(Nc2cc(-c3ccccc3)nc(-c3ccccc3)n2)cc1`, the EC50 was 41 nM.

Take `N#Cc1ccc(Nc2cc(Nc3ccccc3)nc(-c3ccccc3)n2)cc1`: the EC50 amounted to 44 nM. Consider `N#Cc1ccc(Nc2cc(NCc3ccccc3)nc(-c3ccccc3)n2)cc1`, for which the EC50 came to 26 nM.

Consider `N#Cc1ccc(Nc2cc(NCCCc3ccccc3)nc(-c3ccccc3)n2)cc1`, for which the 50% effective concentration (EC50) was determined as 67 nM. `N#Cc1ccc(Nc2cc(NCCCCc3ccccc3)nc(-c3ccccc3)n2)cc1`: the EC50 was found to be 187 nM. As to `N#Cc1ccc(Nc2cc(NCc3ccccn3)nc(-c3ccccc3)n2)cc1`, the EC50 turned out to be 16 nM. For `N#Cc1ccc(Nc2cc(NCc3cccnc3)nc(-c3ccccc3)n2)cc1`, the EC50 was 44 nM. For `N#Cc1ccc(Nc2cc(NCc3ccncc3)nc(-c3ccccc3)n2)cc1`, the concentration for a half-maximal effect (EC50) was 73 nM.

Take `N#Cc1ccc(Nc2cc(Nc3ccccc3O)nc(-c3ccccc3)n2)cc1`: the EC50 was determined as 147 nM. Still for that read-out and setting: then `N#Cc1ccc(Nc2cc(Nc3cccc(O)c3)nc(-c3ccccc3)n2)cc1`, with 181 nM; and `N#Cc1ccc(Nc2cc(Nc3ccc(O)cc3)nc(-c3ccccc3)n2)cc1`, with 171 nM; and `N#Cc1ccc(Nc2cc(Nc3ccc(C#N)cc3)nc(-c3ccccc3)n2)cc1`, with 231 nM.

As a reminder, the EC50 is the midpoint of the concentration-response curve.
